Data published in ChEMBL document CHEMBL1129376, “Localizing antithrombotic and vasodilatory activity with a novel, ultrafast nitric oxide donor” (J Med Chem, 1996).
Blank lines part the entries; values can stand above or below the compound they belong to.

Tests used:
[1] = Half life of compound for dissociation in DETA and NO; format: ADME
[2] = Rate constant of compound for dissociation in proline and NO; format: ADME
[3] = Half life of compound for dissociation in proline and NO; format: ADME
Ovis aries [4] = assay: Intravenous dose of compound that lowered systemic arterial pressure following in ovine pulmonary hypertension model; format: functional, Artery
Ovis aries [5] = assay: Intravenous dose that lowered pulmonary arterial pressure withouteffect on systemic hemodynamics in sheep with drug-induced pulmonary hypertension; format: functional, Artery
Ovis aries [6] = assay: Pulmonary arterial pressure (PAP) in sheep on i.v. administration of 24 nM/ kg min; format: functional, Artery
Ovis aries [7] = assay: Intravenous dose of compound that lowered pulmonary arterial pressure (PAP) in ovine pulmonary hypertension model; Range is 0.8-13 nM/kg min; format: functional, organism-based; conditions: Artery
Ovis aries [8] = assay: Intravenous dose of compound that lowered systemic arterial pressure (SAP) in ovine pulmonary hypertension model; Range is 0.8-13 nM/kg min; format: functional, organism-based; conditions: Artery

half-life [1]: 20 h
Compound: NCCN(CCN)/[N+]([O-])=N/O

Rate constant [2]: 0.39 s⁻¹
T1/2 [3]: 1.8 s
Compound: O=C([O-])[C@H]1CCCN1/[N+]([O-])=N/[O-].[Na+].[Na+]
Dose (Ovis aries [4]): 48 nM/min/kg
Dose (Ovis aries [5]): 24 nM/min/kg
PAP (Ovis aries [6]): 9 mmHg

Compound: SODIUM NITROPRUSSIDE
Dose (nM min-1 kg-1) (Ovis aries [7]): 13
Dose (nM min-1 kg-1) (Ovis aries [8]): 13
